Three compounds from patent publication US20240270771A1, “Compound containing phosphate group, pharmaceutical composition containing same, preparation method therefor and use thereof” (SHANGHAI RAISING PHARMACEUTICAL CO., LTD., priority 2021, published 2024) can be followed below.

The subject of one assay is Aβ42. Put plainly: Aβ42 content in culture supernatant of HEK293APP/sw overexpressing cells (ELISA kit). Type of assay: cell-based. The note with it: compound 400 μM, 24 hours, adjusted by total protein concentration, blank control 11.08. Here is the method: (§1) BCA Protein Assay Kit was purchased from Beyotime, Aβ40 and Aβ42 detection kits were purchased from Wako, and cell culture related reagents were purchased from Gibco.
(§2) HEK293APP/sw overexpressing cells were cultured in DMEM medium containing 10% FBS, 100 μg/mL G418 (Geneticin) and 1×Penicillin-Streptomycin in 48-well plates. A 4 mM compound stock solution (prepared by dissolving the compound in DMEM culture medium) was filtered through a 0.22 μm sterile filter and stored at −20° C. for subsequent use. At 70% cell density, 40 μL of the compound test solution was added to each well to reach a final concentration of 400 μM, and the plate was incubated for 24 hours.
(§3) The supernatant of the culture medium was collected. The BCA reagent was added to a part of the supernatant, after incubating at room temperature for 30 min, the absorbance value (i.e., OD value) of each well was determined by a microplate reader at 570 nm. The total protein concentration was calculated according to a protein standard curve. Meanwhile, the other part of the supernatant (100 μL) was added to a coated 96-well plate and incubated overnight at 4° C., after the solution was removed and the reagents were washed, HRP (horseradish peroxidase)-labeled antibody was added and incubated at 4° C. for 2 hours. After the reagents were removed and washed, a TMB chromogenic solution was added, the plate was incubated at room temperature for 30 min, and then a stop solution was added to stop the reaction. The absorbance value (i.e., OD value) of each well was measured by a microplate reader at 450 nm. The concentrations of Aβ40 and Aβ42 were calculated according to the standard curves of Aβ40 and Aβ42, respectively. In the end, the concentrations of Aβ40 and Aβ42 were adjusted by the total protein concentration, so as to obtain the final concentration.

Another assay has as its system Aβ40. Put plainly: Aβ40 content in culture supernatant of HEK293APP/sw overexpressing cells (ELISA kit). Type of assay: cell-based. The note with it: compound 400 μM, 24 hours, adjusted by total protein concentration, blank control 127.81. Here is the method: as §1, §2, §3
For orientation: ELISA stands for enzyme-linked immunosorbent assay.

In the next assay the test system is APP/PSi 2×Tg mice. Put plainly: Water maze behavior test. Type of assay: in vivo. The note with it: 200 mg/kg oral gavage once a day, 8 weeks; for The number of crossing the platform: test day 6, model group 0.9 ± 0.6; for Time in the target quadrant: test day 6, model group 12.8 ± 2.9, in s. From the text:
Rodents in water have a strong incentive to escape from the water environment, and can escape from the water environment in the fastest and most direct way. The process of learning to escape from the water environment reflects the learning ability of the animals. Spatial positioning according to the surrounding environment and purposefully swimming to a safe place in the water (such as a platform) can reflect the spatial learning and memory ability of the animals.
The test animals were APP/PSi 2×Tg mice (C57BL/6 wild-type mice as the blank control). Mice of 6-8 months old, weighing 20-40 g, were purchased from The Jackson laboratory.
APP/PSi mice are APP/PSi di-transgenic Alzheimer's disease (2×Tg-AD) model mice, and the appearance of deposition of Aβ is earlier than the pathological changes of tau protein for several months, which can more truly simulate the clinical process and pathological changes of Alzheimer's disease.
Preparation of 0.7% CMC-Na: 0.7 g CMC-Na was added with a proper amount of water, heated for dissolution, left for cooling to room temperature, diluted to 100 mL, and stored at 4° C.
Preparation of BTMP: 100 mg of BTMP was added to 10 mL of 0.7% CMC-Na to prepare a 10 mg/mL suspension for use.
Preparation of test compound and comparative compound 1: 100 mg of the compound to be tested was weighted and added to 10 mL of 0.7% CMC-Na to prepare a 10 mg/mL suspension for use.
The laboratory mice were randomly divided into groups (9 or 10 mice per group). Mice in each group were administrated at a dosage of 0.2 mL/10 g body weight by oral gavage once a day for eight weeks.
The mice in the blank control group, model group and test group were orally administrated for 8 consecutive weeks according to the above administration dosage/specification. The water maze training and test were started in the last week of administration. The water maze training and test lasted for six days, with a training period of five days and a testing period of one day. In addition, during the training and testing period of water maze (6 days in total), the indoor conditions such as lighting etc. were kept consistent, the room was kept quiet, and the interference from the environment and personnel was excluded.
2.1. Preparation before the test: a proper amount of water was put into the water maze pool with the water temperature being kept at 22±3° C. The platform was placed in a fixed position (target quadrant) and 1 cm below the water surface, and titanium dioxide was added until the water became white, so that the platform could not be seen clearly.
2.2. Training period (days 1 to 5): on each day, before the first quadrant training, each mouse was placed on the platform for 15 s (to increase the mice's sense of security on the platform), and then the mouse was put into the pool (with its head facing the pool wall) from the quadrant where the platform located, and the swimming time was set as 60 s. If the mouse found the platform within 60 s and stayed for 5 s, it was regarded as the platform being found successfully. If the mouse could not find the platform, then the time was recorded as 60 s. The mouse was guided to the platform and stayed for 20 s, the mouse was then taken out, and the quadrant training for this mouse was ended.
After the first quadrant training, the mouse was trained in the remaining three quadrants sequentially, where it is not necessary to place the mouse on the platform for 15 s before training. The training of each mouse in every two quadrants was conducted at an interval of 10-15 minute. In this way, the training was performed continuously for 5 days.
2.3. Testing period (day 6): 24 hours after the last training, the platform was removed, and the mouse was dropped at the position opposite to the quadrant where the platform previously located (i.e., the position furthest away from the platform). […]

[1] abbreviates: test day 6, model group 45.0 ± 8.8.

As to `CCCC(CCC)C(=O)S/C(CCOP(=O)(O)O)=C(/C)N(C=O)Cc1cnc(C)nc1N` [Compound 1, (Z)—S-(2-(N-((4-amino-2-methylpyrimidin-5-yl)methyl)formamido)-5-(phosphonooxy)pent-2-en-3-yl) 2-propylpentanethioate], in the assay on Aβ42, the “The content of Aβ42” value is recorded as 3.32 pmol/L. Also, the “The content of Aβ40” value in the assay with Aβ40 worked out at 41.18 pmol/L. Besides, in the assay with APP/PSi 2×Tg mice, the “The number of crossing the platform” value was 2.4 ± 0.8 and the “Time in the target quadrant” value was found to be 19.6 ± 3.4. In the assay with APP/PSi 2×Tg mice (test day 6, model group 45.0 ± 8.8, 200 mg/kg), this compound came in with a Latency period of 22.0 ± 1.5 s. Also, in the assay with APP/PSi 2×Tg mice (test day 6, model group 45.0 ± 8.8, listed as compound 1, 200 mg/kg), the Latency period came out at 22.0 ± 1.5 s.
In the case of `CCC(CC)C(=O)S/C(CCOP(=O)(O)O)=C(/C)N(C=O)Cc1cnc(C)nc1N` [Compound 2, (Z)—S-(2-(N-((4-amino-2-methylpyrimidin-5-yl)methyl)formamido)-5-(phosphonooxy)pent-2-en-3-yl) 2-ethylbutanethioate], in the assay on Aβ42, the “The content of Aβ42” value was 3.34 pmol/L. The “The content of Aβ40” value in the assay with Aβ40 was determined as 37.39 pmol/L. Further, in the assay on APP/PSi 2×Tg mice, the “The number of crossing the platform” value is given as 2.2 ± 0.6 and the “Time in the target quadrant” value is 18.8 ± 2.6. In addition, in the assay with APP/PSi 2×Tg mice (setting [1]), the Latency period amounted to 22.7 ± 1.1 s.
With `C/C(=C(\CCOP(=O)(O)O)SC(=O)c1ccco1)N(C=O)Cc1cnc(C)nc1N` [Compound 9, (Z)—S-(2-(N-((4-amino-2-methylpyrimidin-5-yl)methyl)formamido)-5-(phosphonooxy)pent-2-en-3-yl) furan-2-carbothioate], the “The content of Aβ42” value in the assay with Aβ42 was determined as 2.94 pmol/L. Moreover, the “The content of Aβ40” value in the assay with Aβ40 is listed as 42.88 pmol/L. In the assay with APP/PSi 2×Tg mice, the “The number of crossing the platform” value is listed as 2.3 ± 0.5 and the “Time in the target quadrant” value turned out to be 18.6 ± 1.6. The same compound had a Latency period with APP/PSi 2×Tg mice (setting [1]) of 22.8 ± 1.3 s.
